# pIC50: −log10 of the molar value.
# Test system: Plasmodium berghei
# Assay: Luciferase/luciferin-expressing antifolate-resistant parasites were used to infect a culture of HepG2 cells that were pre-incubated with compounds. Infected hepatocytes emit light due to the luciferase reaction. Assay results are presented as the percent inhibition of light emission compared to control. […]
# Type: functional
# Settings: sporozoite; for IC90: read-out: LUCIFERASE INFECTION ASSAY - IC90
Compound,IC90,other results
Cc1cc(C)nc(-n2nc(C)cc2NC(=O)CN2CCc3ccccc3C2)n1,> 10 µM,"pIC50 (HEPG2TOX_HILL_SLOPE 7.28, HEPG2TOX_R_SQUARED 0.662, read-out: LUCIFERASE INFECTION ASSAY - IC50): < 5.00"
OC(CNCc1ccc(F)cc1)(c1ccccc1)c1ccc(F)cc1 (stereo unspecified),> 9.72 µM,"pIC50 (HEPG2TOX_HILL_SLOPE 7.21, HEPG2TOX_R_SQUARED 0.703, read-out: LUCIFERASE INFECTION ASSAY - IC50): < 5.01"
O=C(Nc1nc(-c2ccccn2)cs1)C1CC1c1ccccc1F (stereo unspecified),3.57 µM,"pIC50 (HEPG2TOX_HILL_SLOPE 7.24, HEPG2TOX_R_SQUARED 0.0806, PBLUC_HILL_SLOPE 12.4, PBLUC_R_SQUARED 0.768, read-out: LUCIFERASE INFECTION ASSAY - IC50): 5.52"
CCCNC(=O)c1c(NC(=O)c2ccc(F)cc2F)nc2ccccn12,8.71 µM,"pIC50 (HEPG2TOX_HILL_SLOPE 7.34, HEPG2TOX_R_SQUARED 0.716, PBLUC_HILL_SLOPE 2.53, PBLUC_R_SQUARED 0.731, read-out: LUCIFERASE INFECTION ASSAY - IC50): 5.44"
Cc1ccc(NC(=O)/C=C/c2c(C)nn(CC(C)C)c2Cl)cc1,> 10 µM,"pIC50 (HEPG2TOX_HILL_SLOPE 7.42, HEPG2TOX_R_SQUARED 0.403, read-out: LUCIFERASE INFECTION ASSAY - IC50): < 5.00"
CCOC(=O)c1sc2nc(CSc3ccccc3)nc(NCC(O)CN(C)C)c2c1C (stereo unspecified),> 10 µM,"pIC50 (HEPG2TOX_HILL_SLOPE 7.33, HEPG2TOX_R_SQUARED 0.474, PBLUC_HILL_SLOPE 9.13, PBLUC_R_SQUARED 0.72, read-out: LUCIFERASE INFECTION ASSAY - IC50): 5.04"
CC(=O)N(/N=C/c1ccc(F)cc1)C1=NN(C(C)=O)C(c2ccc(F)cc2)S1 (stereo unspecified),> 8.2 µM,"pIC50 (HEPG2TOX_HILL_SLOPE 7.43, HEPG2TOX_R_SQUARED 0.382, read-out: LUCIFERASE INFECTION ASSAY - IC50): < 5.09"
Cc1ccc(CSc2ccc([N+](=O)[O-])c3nonc23)cc1,> 11 µM,"pIC50 (HEPG2TOX_HILL_SLOPE 7.3, HEPG2TOX_R_SQUARED 0.39, read-out: LUCIFERASE INFECTION ASSAY - IC50): < 4.96"
COc1cc(C)c(C(c2ccc(N(C)C)cc2)c2ccc(N(C)C)cc2)cc1C,6.45 µM,"pIC50 (HEPG2TOX_HILL_SLOPE 7.41, HEPG2TOX_R_SQUARED 0.305, PBLUC_HILL_SLOPE 5.23, PBLUC_R_SQUARED 0.705, read-out: LUCIFERASE INFECTION ASSAY - IC50): 5.37"
COc1cc(Br)c(/C=C2/C(=O)Nc3cc(Cl)ccc32)cc1O,> 10 µM,"pIC50 (HEPG2TOX_HILL_SLOPE 7.49, HEPG2TOX_R_SQUARED 0.517, PBLUC_HILL_SLOPE 14.1, PBLUC_R_SQUARED 0.1, read-out: LUCIFERASE INFECTION ASSAY - IC50): 5.03"
O=C1N=C(Nc2cccnc2)S/C1=C/c1ccc2ncccc2c1,9.5 µM,"pIC50 (HEPG2TOX_HILL_SLOPE 7.45, HEPG2TOX_R_SQUARED 0.476, PBLUC_HILL_SLOPE 2.82, PBLUC_R_SQUARED 0.798, read-out: LUCIFERASE INFECTION ASSAY - IC50): 5.36"
O=C(Nc1ccc(Cl)cc1)Nc1ccccc1SCc1ncc(C(F)(F)F)cc1Cl,> 6.99 µM,"pIC50 (HEPG2TOX_HILL_SLOPE 7.43, HEPG2TOX_R_SQUARED 0.87, PBLUC_HILL_SLOPE 2.47, PBLUC_R_SQUARED 0.266, read-out: LUCIFERASE INFECTION ASSAY - IC50): 5.33"
COc1cc2c(cc1OC)C(c1cccs1)N(Cc1cc(-c3ccco3)on1)CC2 (stereo unspecified),> 10 µM,"pIC50 (HEPG2TOX_HILL_SLOPE 7.23, HEPG2TOX_R_SQUARED 0.683, PBLUC_HILL_SLOPE 1.88, PBLUC_R_SQUARED 0.215, read-out: LUCIFERASE INFECTION ASSAY - IC50): 5.01"
Oc1ccc(Br)c(/C=C/c2ccc3cccc(O)c3n2)c1,> 9.64 µM,"pIC50 (HEPG2TOX_HILL_SLOPE 7.26, HEPG2TOX_R_SQUARED 0.426, read-out: LUCIFERASE INFECTION ASSAY - IC50): < 5.02"
O=C(CNc1cccc(C(F)(F)F)c1)N/N=C/c1c2ccccc2c(Cl)c2ccccc12,> 10 µM,"pIC50 (HEPG2TOX_HILL_SLOPE 7.3, HEPG2TOX_R_SQUARED 0.234, PBLUC_HILL_SLOPE 3.59, PBLUC_R_SQUARED 0.507, read-out: LUCIFERASE INFECTION ASSAY - IC50): 5.21"
O=C(/C=C/c1cn(-c2ccccc2)nc1-c1ccncc1)c1cccc(N2CCCC2=O)c1,> 10 µM,"pIC50 (HEPG2TOX_HILL_SLOPE 7.23, HEPG2TOX_R_SQUARED 0.576, PBLUC_HILL_SLOPE 3.48, PBLUC_R_SQUARED 0.189, read-out: LUCIFERASE INFECTION ASSAY - IC50): 5.02"
c1ccc(CCNc2nccc3nc(-c4ccccc4)[nH]c23)cc1,4.09 µM,"pIC50 (HEPG2TOX_HILL_SLOPE 7.38, HEPG2TOX_R_SQUARED 0.753, PBLUC_HILL_SLOPE 1.8, PBLUC_R_SQUARED 0.435, read-out: LUCIFERASE INFECTION ASSAY - IC50): 5.92"

Compound,IC90,other results
CCC(=O)NC1=C(Nc2ccc(SC(F)F)cc2)C(=O)c2ccccc2C1=O,4.5 µM,"pIC50 (HEPG2TOX_HILL_SLOPE 7.23, HEPG2TOX_R_SQUARED 0.37, PBLUC_HILL_SLOPE 1.96, PBLUC_R_SQUARED 0.792, read-out: LUCIFERASE INFECTION ASSAY - IC50): 5.83"
c1ccc(CN2CCOCC2)c(CNc2ncnc3sccc23)c1,> 10 µM,"pIC50 (HEPG2TOX_HILL_SLOPE 7.26, HEPG2TOX_R_SQUARED 0.756, read-out: LUCIFERASE INFECTION ASSAY - IC50): < 5.00"
O=C(Nc1ccc(Cl)c(Cl)c1)Nc1c(-c2ccccc2)nc2ccccn12,4.52 µM,"pIC50 (HEPG2TOX_HILL_SLOPE 7.35, HEPG2TOX_R_SQUARED 0.457, PBLUC_HILL_SLOPE 10, PBLUC_R_SQUARED 0.727, read-out: LUCIFERASE INFECTION ASSAY - IC50): 5.44"
COCC(C)Nc1ncnc2scc(-c3ccc(OC)cc3)c12 (stereo unspecified),4.03 µM,"pIC50 (HEPG2TOX_HILL_SLOPE 7.42, HEPG2TOX_R_SQUARED 0.779, PBLUC_HILL_SLOPE 12.3, PBLUC_R_SQUARED 0.781, read-out: LUCIFERASE INFECTION ASSAY - IC50): 5.47"
O=C(N/N=C/c1cc(Cl)ccc1O)N/N=C/c1cc(Cl)ccc1O,> 8.99 µM,"pIC50 (HEPG2TOX_HILL_SLOPE 7.47, HEPG2TOX_R_SQUARED 0.53, read-out: LUCIFERASE INFECTION ASSAY - IC50): < 5.05"
COc1ccc(C(C)C)cc1-c1cnc(N)c(-c2cccc(C(F)(F)F)c2)c1,> 8.54 µM,"pIC50 (HEPG2TOX_HILL_SLOPE 7.33, HEPG2TOX_R_SQUARED 0.431, PBLUC_HILL_SLOPE 11.3, PBLUC_R_SQUARED 0.541, read-out: LUCIFERASE INFECTION ASSAY - IC50): 5.10"
O=C(Nc1ccc2c(c1)OCO2)c1cnc(N2CCN(CCc3ccccc3)C2=O)o1,> 10 µM,"pIC50 (HEPG2TOX_HILL_SLOPE 7.5, HEPG2TOX_R_SQUARED 0.498, PBLUC_HILL_SLOPE 1.96, PBLUC_R_SQUARED 0.361, read-out: LUCIFERASE INFECTION ASSAY - IC50): 5.44"
O=C(Cc1ccccc1)Nc1ccccc1C(=O)Nc1nc2ccccc2[nH]1,> 10 µM,"pIC50 (HEPG2TOX_HILL_SLOPE 7.34, HEPG2TOX_R_SQUARED 0.432, read-out: LUCIFERASE INFECTION ASSAY - IC50): < 5.00"
O=C(Nc1cccc(C(F)(F)F)c1)Nc1ccccc1Sc1c(Cl)cncc1Cl,> 7.2 µM,"pIC50 (HEPG2TOX_HILL_SLOPE 7.44, HEPG2TOX_R_SQUARED 0.649, PBLUC_HILL_SLOPE 2.82, PBLUC_R_SQUARED 0.349, read-out: LUCIFERASE INFECTION ASSAY - IC50): 5.31"
Nc1ccc(-c2cn3c(-c4ccc(Oc5ccccc5)cc4)cnc3cn2)cn1,> 8.7 µM,"pIC50 (HEPG2TOX_HILL_SLOPE 7.27, HEPG2TOX_R_SQUARED 0.167, PBLUC_HILL_SLOPE 11.9, PBLUC_R_SQUARED 0.186, read-out: LUCIFERASE INFECTION ASSAY - IC50): 5.14"
COc1cc(OC)c(NC(=O)CN2CCC(c3c[nH]c4ccccc34)CC2)cc1Cl,> 10 µM,"pIC50 (HEPG2TOX_HILL_SLOPE 7.32, HEPG2TOX_R_SQUARED 0.598, PBLUC_HILL_SLOPE 4.32, PBLUC_R_SQUARED 0.304, read-out: LUCIFERASE INFECTION ASSAY - IC50): 5.09"
Cc1ccc(C(=O)c2ccccc2C(=O)OC(C)C(=O)N(Cc2ccccc2)Cc2ccccc2)cc1 (stereo unspecified),9.62 µM,"pIC50 (HEPG2TOX_HILL_SLOPE 7.35, HEPG2TOX_R_SQUARED 0.243, PBLUC_HILL_SLOPE 15.7, PBLUC_R_SQUARED 0.159, read-out: LUCIFERASE INFECTION ASSAY - IC50): 5.08"
COCc1ccc(C(=O)Nc2ccc(-n3cnc4ccccc43)nc2)cc1,> 10 µM,"pIC50 (HEPG2TOX_HILL_SLOPE 7.46, HEPG2TOX_R_SQUARED 0.472, PBLUC_HILL_SLOPE 11.4, PBLUC_R_SQUARED 0.343, read-out: LUCIFERASE INFECTION ASSAY - IC50): 5.01"
C/C(=N\Nc1nc2ccccc2o1)c1ccc2ccccc2c1O,> 10 µM,"pIC50 (HEPG2TOX_HILL_SLOPE 7.42, HEPG2TOX_R_SQUARED 0.127, PBLUC_HILL_SLOPE 13.1, PBLUC_R_SQUARED 0.536, read-out: LUCIFERASE INFECTION ASSAY - IC50): 5.05"
CCCNC(=O)c1c(NC(=O)c2cccc(OC)c2)nc2ccc(C)cn12,8.77 µM,"pIC50 (HEPG2TOX_HILL_SLOPE 7.34, HEPG2TOX_R_SQUARED 0.277, PBLUC_HILL_SLOPE 3.84, PBLUC_R_SQUARED 0.328, read-out: LUCIFERASE INFECTION ASSAY - IC50): 5.31"
NC(=O)c1ccc(-c2cc(-c3ccccc3)cnc2N)cc1,4.22 µM,"pIC50 (HEPG2TOX_HILL_SLOPE 7.43, HEPG2TOX_R_SQUARED 0.0328, PBLUC_HILL_SLOPE 16.6, PBLUC_R_SQUARED 0.439, read-out: LUCIFERASE INFECTION ASSAY - IC50): 5.43"

# — ChEMBL document CHEMBL4483862, “Open-source discovery of chemical leads for next-generation chemoprotective antimalarials” (2018)
